Values quoted from earlier work in patent publication US20020051978A1, “Methods and compositions for the identification, assessment, prevention and therapy of human cancers” (priority 2000, published 2002).
Read-outs that look alike come from different tables or passages of the source.

Test system: 60 cancer cell lines (NCI 60 cancer cell line series)
Details: cited from earlier work

SMILES: O=C1c2c(O)ccc(O)c2C(=O)c2c(NCCNCCO)ccc(NCCNCCO)c21 [Mitoxantrone]
- -Log (GI50) (Breast BT-549 (CL5013)): 7.2
- -Log (GI50) (Breast HS-578T CL5006): 7.0
- -Log (GI50) (Breast MCF7(I) (CL5001)): 8.4
- -Log (GI50) (Breast MCF7/ADRr (CL5002)): 5.4
- -Log (GI50) (Breast MDA-MB-231 CL5005): 6.7
- -Log (GI50) (Breast MDA-MB-435 (CL5011)): 6.3
- -Log (GI50) (Breast MDA-N CL5012): 6.6
- -Log (GI50) (Breast T-47D (CL5014)): 7.2
- -Log (GI50) (CNS SF-268 CL12014): 7.5
- -Log (GI50) (CNS SF-295 CL12015): 7.7
- -Log (GI50) (CNS SF-539 CL12016): 7.8
- -Log (GI50) (CNS SNB-19 (CL12002)): 7.8
- -Log (GI50) (CNS SNB-75(I) CL12005): 7.9
- -Log (GI50) (CNS U251(I) CL12009): 8.0
- -Log (GI50) (Colon COLO-250 CL4010): 7.0
- -Log (GI50) (Colon HCC-2998 (CL4002)): 6.6
- -Log (GI50) (Colon HCT-15 CL4015): 6.6
- -Log (GI50) (Colon HCT-116 (CL4003)): 7.3
- -Log (GI50) (Colon HT29(I) CL4001): 6.6
- -Log (GI50) (Colon KM12 (CL4017)): 6.3
- -Log (GI50) (Colon SW-620 (CL4009)): 7.3
- -Log (GI50) (Leukemia CCRF-CEM(I) (CL7003)): 8.2
- -Log (GI50) (Leukemia HL-60(I) (CL7008)): 8.0
- -Log (GI50) (Leukemia K562(I) CL7005): 6.9
- -Log (GI50) (Leukemia MOLT-4 (CL7006)): 8.3
- -Log (GI50) (Leukemia RPMI-8226(I) (CL7010)): 6.7
- -Log (GI50) (Leukemia SR CL7019): 8.1
- -Log (GI50) (Melanoma LOX IMVI CL10001): 7.7
- -Log (GI50) (Melanoma M14 (CL10014)): 6.9
- -Log (GI50) (Melanoma MALME-3M CL10002): 6.9
- -Log (GI50) (Melanoma SK-MEL-2 (CL10005)): 6.4
- -Log (GI50) (Melanoma SK-MEL-5 (CL10007)): 7.3
- -Log (GI50) (Melanoma SK-MEL-28 (CL10008)): 6.3
- -Log (GI50) (Melanoma UACC-62 (CL10020)): 7.4
- -Log (GI50) (Melanoma UACC-257 (CL10021)): 5.7
- -Log (GI50) (NCSLC NCI-H522 CL1003): 7.3
- -Log (GI50) (NSCLC A549/ATCC (CL1004)): 7.9
- -Log (GI50) (NSCLC EKVX (CL1008)): 6.5
- -Log (GI50) (NSCLC HOP-62 (CL1026)): 7.9
- -Log (GI50) (NSCLC HOP-92 (CL1029)): 7.8
- -Log (GI50) (NSCLC NCI-H23(I) CL1001): 7.2
- -Log (GI50) (NSCLC NCI-H226 CL1013): 7.8
- -Log (GI50) (NSCLC NCI-H332M CL1017): 6.6
- -Log (GI50) (NSCLC NCI-H460 CL1021): 8.2
- -Log (GI50) (Ovarian IGROV1 CL6010): 6.7
- -Log (GI50) (Ovarian OVCAR-3 CL6001): 6.5
- -Log (GI50) (Ovarian OVCAR-4 CL6002): 6.5
- -Log (GI50) (Ovarian OVCAR-5 CL6003): 6.5
- -Log (GI50) (Ovarian OVCAR-8 CL6005): 7.4
- -Log (GI50) (Ovarian SK-OV-3 CL6011): 7.4
- -Log (GI50) (Prostate DU-145 CL11003): 7.5
- -Log (GI50) (Prostate PC-3(I) CL11001): 6.9
- -Log (GI50) (Renal 786-O CL9018): 7.7
- -Log (GI50) (Renal A498 CL9013): 7.2
- -Log (GI50) (Renal ACHN CL9023): 7.9
- -Log (GI50) (Renal CAKI-1 CL9015): 8.0
- -Log (GI50) (Renal RXF-393 CL9016): 7.2
- -Log (GI50) (Renal SN12C CL9008): 8.1
- -Log (GI50) (Renal TK10 CL9024): 6.4
- -Log (GI50) (Renal UO-31 CL9004): 6.5
